Source: PubChem BioAssay AID330 (DTP/NCI, 2004)
“And” between values parts separate entries of the source, which are not always exact repeats. Equal entries are not always repeated. Toxic doses and inconclusive results are not listed. The calls were made as follows: active = survival T/C of 150% or more; inactive = T/C below 125% in these data.

System: P388 leukemia ip, CD2F1 mice, survival T/C
Experiment: NCI In Vivo Anticancer Drug Screen. Data for tumor model P388 Leukemia (intraperitoneal) in CD2F1 (CDF1) mice
Conditions: endpoint: median survival time, higher = longer survival
Outline: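 Mice carrying the transplanted tumor received test compound or vehicle. Survival was recorded in each group, and the value is the treated-group measurement divided by that of the vehicle-treated control group.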

[1] = dose: 60.0 mg/kg/injection, schedule: Q01DX005 (ip), vehicle: saline with Tween-80
[2] = dose: 120.0 mg/kg/injection, schedule: Q01DX005 (ip), vehicle: saline with Tween-80
[3] = dose: 240.0 mg/kg/injection, schedule: Q01DX005 (ip), vehicle: saline with Tween-80
[4] = dose: 60.0 mg/kg/injection, schedule: Q01DX005 (ip), vehicle: saline
[5] = dose: 120.0 mg/kg/injection, schedule: Q01DX005 (ip), vehicle: saline
[6] = dose: 240.0 mg/kg/injection, schedule: Q01DX005 (ip), vehicle: saline
[7] = dose: 100.0 mg/kg/injection, schedule: Q04DX003 (ip), vehicle: saline with Tween-80
[8] = dose: 200.0 mg/kg/injection, schedule: Q04DX003 (ip), vehicle: saline with Tween-80
[9] = dose: 400.0 mg/kg/injection, schedule: Q04DX003 (ip), vehicle: saline with Tween-80
[10] = dose: 50.0 mg/kg/injection, schedule: Q01DX009 (ip), vehicle: saline
[11] = dose: 100.0 mg/kg/injection, schedule: Q01DX009 (ip), vehicle: saline
[12] = dose: 200.0 mg/kg/injection, schedule: Q01DX009 (ip), vehicle: saline
[13] = dose: 12.5 mg/kg/injection, schedule: Q01DX009 (ip), vehicle: Klucel (hydroxypropylcellulose) (HPC)
[14] = dose: 50.0 mg/kg/injection, schedule: Q01DX009 (ip), vehicle: Klucel (hydroxypropylcellulose) (HPC)
[15] = dose: 6.25 mg/kg/injection, schedule: Q01DX009 (ip), vehicle: saline with Tween-80
[16] = dose: 12.5 mg/kg/injection, schedule: Q01DX009 (ip), vehicle: saline with Tween-80
[17] = dose: 25.0 mg/kg/injection, schedule: Q01DX009 (ip), vehicle: saline with Tween-80

Measured: T/C

COc1ccc(C2(c3ccc(OC)cc3)ON(C(c3ccccc3)c3ccccc3)C2=O)cc1
inactive: [1] 95 % of control | [2] 91 % of control | [3] 89 % of control

CC(C)[Si]1(C(C)C)N([Si](C)(C)F)[Si](C(C)C)(C(C)C)N1[Si](C)(C)F
inactive: [4] 97 % of control | [5] 87 % of control | [6] 100 % of control

CC1(C)CN=C(C2=C(O)c3ccccc3C2=O)C1
inactive: [7] 91 % of control | [8] 93 % of control | [9] 90 % of control

CC(Cl)C(=O)Nc1cc2ccccc2oc1=O (stereo not given)
inactive: [1] 106 % of control | [2] 94 % of control | [3] 93 % of control

O=C1C2=C(/C=C/c3ccccc3)OCCC2=NN1c1ccccc1
inactive: dose: 60.0 mg/kg/injection, schedule: Q01DX005 (ip), vehicle: Klucel (hydroxypropylcellulose) (HPC) 94 % of control | dose: 120.0 mg/kg/injection, schedule: Q01DX005 (ip), vehicle: Klucel (hydroxypropylcellulose) (HPC) 98 % of control | dose: 240.0 mg/kg/injection, schedule: Q01DX005 (ip), vehicle: Klucel (hydroxypropylcellulose) (HPC) 109 % of control

CNC(=S)N/N=C(/C)CSCC(=O)OC
inactive: [10] 100 % of control | [11] 92 % of control | [12] 91 % of control

OC1(C(O)(c2ccc(-c3ccccc3)cc2)c2ccc(-c3ccccc3)cc2)CC=CCC1 (stereo not given)
inactive: [1] 105 % of control | [2] 92 % of control | [3] 90 % of control

COC1C2OC(C)(C)OC2OC1C(C)N(C)O (stereo not given)
inactive: dose: 100.0 mg/kg/injection, schedule: Q01DX001 (ip), vehicle: Klucel (hydroxypropylcellulose) (HPC) 103 % of control | dose: 100.0 mg/kg/injection, schedule: Q01DX001 (ip), vehicle: saline 116 % of control | dose: 200.0 mg/kg/injection, schedule: Q01DX001 (ip), vehicle: Klucel (hydroxypropylcellulose) (HPC) 106 % of control | dose: 200.0 mg/kg/injection, schedule: Q01DX001 (ip), vehicle: saline 104 % of control | dose: 400.0 mg/kg/injection, schedule: Q01DX001 (ip), vehicle: Klucel (hydroxypropylcellulose) (HPC) 103 % of control | dose: 400.0 mg/kg/injection, schedule: Q01DX001 (ip), vehicle: saline 99 % of control

CC(=O)OCC1OC(CCC#N)C(OC(C)=O)C(OC(C)=O)C1OC(C)=O (stereo not given)
inactive: [1] 102 % of control and 100 % of control | [4] 102 % of control | [2] 98 % of control and 108 % of control | [5] 101 % of control | [3] 100 % of control and 102 % of control | [6] 101 % of control

CC1(C)CN2CCO[Si](CC[Si](C)(C)C)(OCC2)O1
inactive: dose: 50.0 mg/kg/injection, schedule: Q01DX005 (ip), vehicle: Klucel (hydroxypropylcellulose) (HPC) 105 % of control | dose: 100.0 mg/kg/injection, schedule: Q01DX005 (ip), vehicle: Klucel (hydroxypropylcellulose) (HPC) 105 % of control | dose: 200.0 mg/kg/injection, schedule: Q01DX005 (ip), vehicle: Klucel (hydroxypropylcellulose) (HPC) 102 % of control

CN(C(=S)S(=O)(=O)C12CC3CC(CC(C3)C1)C2)c1ccccc1
inactive: [13] 118 % of control | [14] 124 % of control

COCC(=O)Oc1ccc[nH]c1=O
inactive: dose: 12.5 mg/kg/injection, schedule: Q01DX009 (ip), vehicle: saline 101 % of control and 113 % of control | dose: 25.0 mg/kg/injection, schedule: Q01DX009 (ip), vehicle: saline 103 % of control and 107 % of control | [10] 100 % of control and 106 % of control | [11] 106 % of control and 113 % of control | [12] 100 % of control and 103 % of control

CCOc1ccc(/C=N/NS(=O)(=O)c2ccccc2)cc1OC
inactive: [7] 100 % of control | [8] 95 % of control | [9] 100 % of control

CC1=CC(C)CN(C)C1 (stereo not given)
inactive: dose: 6.25 mg/kg/injection, schedule: Q01DX005 (ip), vehicle: saline 102 % of control | dose: 12.5 mg/kg/injection, schedule: Q01DX005 (ip), vehicle: saline 100 % of control | dose: 25.0 mg/kg/injection, schedule: Q01DX005 (ip), vehicle: saline 105 % of control

O=C(CCCCC(=O)N/N=C/c1cccc([N+](=O)[O-])c1)N/N=C/c1cccc([N+](=O)[O-])c1
inactive: [1] 100 % of control | [2] 92 % of control | [3] 94 % of control

NNc1ccc2nccn2n1
inactive: [15] 95 % of control | [16] 101 % of control | [17] 94 % of control

CC(C)c1nccn1Cc1ccc(Cl)cc1Cl
inactive: [1] 88 % of control | [2] 99 % of control

C1CC[N-]CC1.C1CC[N-]CC1.C1CC[N-]CC1.C1CC[N-]CC1.[Cl][Rh][Cl]
inactive: dose: 3.13 mg/kg/injection, schedule: Q01DX009 (ip), vehicle: saline with Tween-80 120 % of control | dose: 4.0 mg/kg/injection, schedule: Q01DX009 (ip), vehicle: saline 118 % of control | [15] 120 % of control and 123 % of control | [16] 120 % of control | [17] 92 % of control

Cc1nn(CCO)c(=O)c(C#N)c1C
inactive: dose: 25.0 mg/kg/injection, schedule: Q04DX002 (ip), vehicle: distilled water + Tween-80 103 % of control | dose: 50.0 mg/kg/injection, schedule: Q04DX002 (ip), vehicle: distilled water + Tween-80 108 % of control | dose: 100.0 mg/kg/injection, schedule: Q04DX002 (ip), vehicle: distilled water + Tween-80 101 % of control | dose: 200.0 mg/kg/injection, schedule: Q04DX002 (ip), vehicle: distilled water + Tween-80 94 % of control

c1ccc(-c2nn(-c3ccccc3)[n+](-c3ccccc3)n2)cc1
inactive: dose: 1.25 mg/kg/injection, schedule: Q01DX009 (ip), vehicle: saline with Tween-80 100 % of control | dose: 2.5 mg/kg/injection, schedule: Q01DX009 (ip), vehicle: saline with Tween-80 90 % of control

Cc1cc(C)nc(NS(=O)(=O)c2ccc(N=c3c4ccccc4n(-c4ccccc4)c4ccccc34)cc2)n1
inactive: dose: 50.0 mg/kg/injection, schedule: Q01DX005 (ip), vehicle: saline with Tween-80 97 % of control | dose: 100.0 mg/kg/injection, schedule: Q01DX005 (ip), vehicle: saline with Tween-80 109 % of control | dose: 200.0 mg/kg/injection, schedule: Q01DX005 (ip), vehicle: saline with Tween-80 90 % of control

O=C1CC(c2ccccc2)C(c2ccccc2)C1 (stereo not given)
inactive: [14] 94 % of control | dose: 100.0 mg/kg/injection, schedule: Q01DX009 (ip), vehicle: Klucel (hydroxypropylcellulose) (HPC) 97 % of control | dose: 200.0 mg/kg/injection, schedule: Q01DX009 (ip), vehicle: Klucel (hydroxypropylcellulose) (HPC) 93 % of control

CCCCCC/C(CC(SCC)c1ccccc1Cl)=N\NC(N)=O (stereo not given)
inactive: dose: 60.0 mg/kg/injection, schedule: Q01DX005 (ip), vehicle: saline + Tween-80 + alcohol 105 % of control | dose: 120.0 mg/kg/injection, schedule: Q01DX005 (ip), vehicle: saline + Tween-80 + alcohol 97 % of control | dose: 240.0 mg/kg/injection, schedule: Q01DX005 (ip), vehicle: saline + Tween-80 + alcohol 100 % of control

O=c1cnn(C2OC(CO)C(O)C2O)c(=O)[nH]1 (stereo not given)
inactive: [13] 118 % of control and 120 % of control | dose: 25.0 mg/kg/injection, schedule: Q01DX009 (ip), vehicle: Klucel (hydroxypropylcellulose) (HPC) 109 % of control and 110 % of control

CCCCCC(C=O)C(O)(C(F)(F)F)C(F)(F)Cl (stereo not given)
inactive: dose: 50.0 mg/kg/injection, schedule: Q04DX003 (ip), vehicle: saline with Tween-80 100 % of control | [7] 100 % of control | [8] 109 % of control

CCOP(=O)(CC(=O)O)OCC
inactive: [10] 100 % of control | [11] 102 % of control | [12] 93 % of control
